According to US12545653B2, “Compound as PPAR agonist and application thereof” (USA Elixiria Biotech Inc., priority 2019, dated 2026):
“And” between values parts separate entries of the source, which are not always exact repeats. Equal entries are not always repeated.

Tests used:
[1] = biological target: T1, PPARγ (Homo sapiens, UniProt P37231); experiment: In vitro transcriptional activity of PPARγ gene (PPRE-luciferase reporter, HEK 293 T cells); assay type: cell-based; details: HEK 293 T cells transfected with PPARγ expression and PPRE-luc plasmids, 21 hours; read-out: EC50 of PPARγ gene activation
T1 construct: expressed in transfected cells; host or cells: HEK 293 T cells
T1 sequence (P37231 1-505): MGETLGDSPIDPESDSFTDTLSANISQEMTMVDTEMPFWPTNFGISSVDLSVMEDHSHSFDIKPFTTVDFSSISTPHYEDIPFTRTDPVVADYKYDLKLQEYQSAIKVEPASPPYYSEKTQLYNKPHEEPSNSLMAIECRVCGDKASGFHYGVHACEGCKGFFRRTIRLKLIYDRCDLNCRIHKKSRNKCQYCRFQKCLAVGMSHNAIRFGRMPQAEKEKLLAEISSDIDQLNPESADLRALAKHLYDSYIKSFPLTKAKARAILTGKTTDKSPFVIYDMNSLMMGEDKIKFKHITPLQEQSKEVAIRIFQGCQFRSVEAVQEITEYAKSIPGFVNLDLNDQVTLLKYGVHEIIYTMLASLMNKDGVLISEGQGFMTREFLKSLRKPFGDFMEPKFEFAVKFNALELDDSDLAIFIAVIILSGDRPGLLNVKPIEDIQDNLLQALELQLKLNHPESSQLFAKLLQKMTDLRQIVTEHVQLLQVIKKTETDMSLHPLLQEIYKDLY
Excerpt: In this experiment, the PPARγ gene was used as target gene to detect the in vitro transcription activity of the compounds. The compounds of interest were detected was first dissolved with dimethyl sulfoxide (DMSO). […] First two plasmids were constructed: PPARγ protein expression plasmid and luciferase reporter plasmid. They are both from the lentiviral plasmid pLV-CMVIE-ZsGreen-Puro, whose DNA sequence contains the cytomegalovirus immediate early (CMVie) promoter, ZsGreen and Puro dual reporter. The PPARγ expression plasmid pLV-CMVIE-PPAR[…]-ZsGreen-Puro was constructed by cloning full-length coding sequences of the pertinent receptors into pHBLV-CMVIE-ZsGreen-Puro vector. To construct the luciferase (luc) reporter plasmid pLV-PPRE-luc-ZsGreen-Puro, the CMVie promoter in plasmid pHBLV-CMVIE-ZsGreenPuro was first replaced by a peroxisome proliferator responsive element (PPRE) containing fragments comprised the nucleotide sequence 50-[…], repeated four times in tandem, to generate a new plasmid, at a multiple cloning site of which the luc gene was then inserted. […] The compounds used for screening are representatives for compounds listed in Table 2, and Tables 3 of the present invention. […] Cells were distributed in 10-cm tissue culture plates at a density of 5.5 million cells per plate, and then transfected with the luciferase reporter plasmid (6 nanogram/plate) and the PPARγ expression plasmid (18 nanogram/plate). Cells were cultured for 6 hours. […] Then the cells were distributed in 96-well plates at a density of 20,000 cells per well. After incubation for 6 h, compounds or control with different concentration were placed into each well, resulting in the finical concentration of […] with each concentration in triplicate. Twenty-one hours later, promoter activation was detected by the addition of SteadyLite (PerkinElmer, Waltham, MA) and GloMax 96 Microplate Luminometer (Promega, Madison, WI). The amount of Luminometer emitted from each well is positively correlated with the expression of PPARγ gene. A three-parameter Sigmoid function curve was used to fit the obtained data. The abscissa represents the logarithmic value of the concentration, and the ordinate represents the percentage of PPARγ gene activation relative to those of the control. […] In Statistical analysis, the coefficient of variation is used to measure the robustness and repeatability of the experiment. […] The difference is significant with P<0.05. EC50 is a parameter of its activity.

[2] = system: klotho gene; experiment: In vivo brain transcriptional activity of klotho gene (RT-PCR of brain mRNA); parameters: species or system mouse; details: 10 mg/kg body weight/day tail vein; for mRNA level of klotho gene in the brain of the mouse relative to vehicle control group: after 10 days of continuous injection; for fold induction at 10 mg/kg: Mus musculus, iv, 720 h, after 30 days of continuous injection, read-out: mRNA level of klotho gene in the brain of the mouse relative to vehicle control group
Description: To verify this hypothesis, adult male Kunming mice were used in the experiments. […] The injection volume is 8 ml/kg body weight. Dimethyl sulfoxide (DMSO) was used as a vehicle control of the compounds. […] The RNA was then reverse-transcribed to the cDNA, and quantified by SYBR Green fluorescence quantitative PCR kit (HaiGene) and a quantitative PCR system (Bio-Rad Min-Opticon Type 2) were used for real-time fluorescent quantitative polymerase chain reaction (RT-PCR). The mouse gene primers were design as follows: • KLOTHO-forward 5′-[…]-3′; • LOTHO-reverse 5′-[…]-3′; • GAPDH-forward 5′-[…]-3′; • GAPDH-reverse 5′-[…]-3′.
Data analysis was performed using the 2^−ΔΔct method. Semi-quantitative values of gene expression were then normalized by the control mean.

[3] = system: klotho gene promoter; experiment: In vitro transcriptional activity of klotho gene (KL-Luc-3 luciferase cell line); assay type: cell-based; details: 16 h, KL-Luc-3 cells, 16 hours incubation
Excerpt: The activities of these carbonyl-containing cyclic compounds are indicated by the increased expression of klotho gene. […] The present invention retains the DNA fragment of the klotho gene promoter, but replaces the DNA sequence of the coding region of the klotho gene with those of luciferase, so that the degree of activation of the klotho gene promoter and the expression of the klotho gene will be sensitively determined by detecting the luciferase luminescence signal.
Klotho is an important downstream gene of PPARγ pathway. The following experiments tested the properties of the compounds in Table 2 and 3 to activate the klotho gene in vitro. First, a stable cell line, KL-Luc, was constructed. The klotho gene carried by the cell line retained the DNA sequence of klotho gene promoter, but the coding sequence of the klotho gene was replaced with luciferase. KL-Luc fragment includes a promoter sequence of the klotho gene (a DNA region of 18,000 base pairs in length upstream of the transcription start site of the gene) and a luciferase-encoding sequence. To construct the KL-Luc sequence containing lentiviral vector, the KL-Luc fragment was cloned into the pDONR vector using BP recombinase, so that the target fragment had attL recombination sites on both sides. Then the KL-Luc fragment was transferred from the pDONR vector to a lentiviral vector (without exogenous promoter) pLenti6/BLOCK-IT-DEST. The constructed lentiviral vector of the target fragment was then transfected into HEK293T cells, and then the KL-Luc gene lentiviral expression vector and the […] were co-transfected into HEK293T cells to perform lentiviral packaging. The virus was harvested, and virus titer was calculated. And the lentivirus was used to infect target cells. The stable strains were screened by adding drugs. Finally, monoclonal cell lines were selected from polyclonal cells by cell cloning. The effective luciferase expression of each monoclonal cell line was determined by quantitative polymerase chain reaction (qPCR). The inventors chose a third monoclonal cell line (KL-Luc-3) to continue the compound screening. The compounds of interest were the compounds in Table 2 and 3. At the same time, rosiglitazone and pioglitazone were used as a control. KL-Luc-3 cells were divided into 96-well plates at 5000 cells in 80 microL per well, cultured in a 37° C. carbon dioxide incubator with serum-free Duchenne's Modified Eagle's Medium (DMEM) for 6 hours, and then the compounds were added to a final concentration of 0, 0.1, 0.3, 1, 3, 10, 30 micromole/L, with each concentration in triplicate. After 16 hours of incubation, the SteadyLite (PerkinElmer, Waltham, MA) and the GloMax Microplate Luminometer (Promega, USA) were used for quantitation of luciferase activity. The amount of luminescence emitted from each well is positively related to the transcriptional activity of the klotho promoter. A three-parameter Sigmoid function curve was used to fit the obtained data. The abscissa represents the logarithmic value of the concentration, and the ordinate represents the percentage of the activity relative to those of the control. […] In Statistical analysis, the coefficient of variation is used to measure the robustness and repeatability of the experiment. […] The difference is significant with P<0.05. EC50 is a parameter of its activity. The lower the EC50 value, the higher the activity of corresponding compound.

[4] = system: dIoN-CCI rat model of trigeminal neuropathic pain; experiment: Trigeminal neuralgia model (dIoN-CCI), Von Frey mechanical threshold; details: dIoN-CCI rats
Description: A common rat model of trigeminal neuralgia is a chronic compression injury model (CCI) caused by ligation of the infraorbital nerve (IoN). In the present study, an improved rat model of trigeminal neuropathic pain was used, in which CCI is induced by ligation of distal segment of IoN (dIoN). Wild type male Sprague-Dawley rats with body weight 250 to 260 grams underwent dIoN-CCI surgery experiments. The mechanical threshold of pain in rats without surgery experiments will exceed 6 grams. If the dIoN-CCI surgery is successful, it will reduce the pain threshold to less than 2 grams.
The mice were divided into the following 11 groups with 4 to 5 mice in each group. The formulation used for transdermal treatment is cream. […] The compound administration of each group starts on the third day after successful dIoN-CCI surgery. […] The method for detecting rat facial hypersensitivity is performed using Von Frey filaments. An analysis of variance (ANOVA) and Dunnett post hoc comparison test are used to compare the significance of the differences between different groups of data. The difference is significant with P<0.05.

[5] = system: APP/PS1 transgenic mice; experiment: Alzheimer's disease model, eight-arm radial water maze and brain gene expression; assay type: in vivo, mouse; details: 30 days in food, 10 mg/kg body weight/day (donepezil 3 mg/kg body weight/day), 5 on the first day
Excerpt: A common indicator used in academia in memory and dementia experiments is the number of errors in the water maze (reference memory). More errors mean poorer memory. On the last 3 days of dosing, eight-arm radial water maze was used by experimenters who were blind to drug treatment. As a classic experimental instrument, to detect slight deficits in learning and memory, the eight-arm water maze is more sensitive than not only Morris maze, but also Six-arm radial water maze. For details, see reference 8: Alamed J et al. Two-day radial-arm water maze learning and memory task; robust resolution of amyloid-related memory deficits in transgenic mice [J]. […] This experiment uses an eight-arm water maze built in accordance with the above literature. The eight-arm water maze is placed in a basin with an interior diameter of 102 cm. Each arm measures 30 cm long, 14.5 cm wide, and 40 cm high. Escape platform is located at the end of one of the arms. In the reference memory version of the task described here, the goal arm is held constant for all trials, with a different start arm on successive trials. On day one, mice received 12 trials, with trials alternating between visible and hidden platform. On day 2 and 3, mice received 12 additional trials but the platform was kept hidden throughout the trials. Entry into an incorrect arm was scored as a spatial reference error. Errors were averaged into three trial blocks, with four blocks per day, e.g., the first block (the 1st to 3rd trial), the second block (the 4th to 6th trial), and so on. […]. The line charts were made with the number of blocks as the abscissa and the average of the number of errors as the ordinate. At the end of the experiments, the cerebral cortex and hippocampus of the mice were removed, RNA was extracted, and the expression of many genes was analyzed by semi-quantitative RT-PCR. […] The difference is significant with P<0.05.

[6] = system: db−/db− mice; experiment: Diabetic peripheral neuropathy model, Von Frey threshold, sciatic nerve ROS and MDA; assay type: in vivo, mouse; details: in food 10 mg/kg body weight/day (pregabalin 30 mg/kg body weight/day); for level of MDA in the sciatic nerve after 10 week treatment / level of mitochondrial ROS in the sciatic nerve after 10 week treatment: compared with healthy control group; for mechanical pain threshold after 10 week treatment: compared with normal control group
Description: Male 5-6 week-old male db^−/db^− mice were used in the experiment, and their normoglycemic heterozygous littermates were used as controls. db^−/db^− is a commonly used type 2 diabetes animal model. The compounds was dissolved in DMSO and mixed into food pellets. The animals were given ad libitum access to the pellets, beginning from 8 to 9 weeks of age for 10 weeks. […] The method for detecting mice hindlimb hypersensitivity is performed using Von Frey filaments. […] The difference is significant with P<0.05. The increase of mitochondrial reactive oxygen species (ROS) in the sciatic nerve of mice, which in turn leads to the increase of intracellular malondialdehyde (MDA), is the etiology of this type of neuropathic pain. The efficacy of compound to treat the root cause of the disease was evaluated by measurement of the levels of MDA and mitochondrial ROS from the sciatic nerves.

Row | SMILES | EC50 [1] | mRNA level of klotho gene in the brain of the mouse relative to vehicle control group [2] | fold induction at 10 mg/kg [2] | other results
1 | CCc1ccc(CC/C=C/c2ccc3c(c2)NC(=O)CO3)cc1 [ELB00993, (E)-6-(4-(4-ethylphenyl)but-1-en-1-yl)-2H-benzo[b][1,4]oxazin-3(4H)-one] | < 6.4 µM | more than twice | > 5 | 
2 | CCc1ccc(CCCCc2ccc3c(c2)OCCC(=O)N3)cc1 [ELB00827, 8-(4-(4-ethylphenyl)butyl)-2,3-dihydrobenzo[b][1,4]oxazepin-4(5H)-one] | < 6.4 µM | more than twice | > 5 | EC50 [3]: < 9.7 µM
3 | NCC1(CC(=O)O)CCCCC1 [gabapentin, reference compound] |  |  |  | side effect at the time of administration [4]: drowsiness; duration of the anti-allodynic effect ([4]; oral gabapentin group (1 mg/kg body weight)): 1 h
4 | CCc1ccc(CC/C=C/c2ccc3c(c2)C(=O)CCO3)cc1 [ELB001080, (E)-6-(4-(4-ethylphenyl)but-1-en-1-yl)chroman-4-one] | < 6.4 µM |  |  | number of errors in water maze on the third day [5]: comparable to that of ELB00824; level of MDA in the sciatic nerve after 10 week treatment [6]: reduced; level of mitochondrial ROS in the sciatic nerve after 10 week treatment [6]: reduced; mechanical pain threshold after 10 week treatment [6]: significantly improved
5 | CC(C)C[C@H](CN)CC(=O)O [pregabalin, reference compound] |  |  |  | level of MDA in the sciatic nerve after 10 week treatment [6]: significantly higher; level of mitochondrial ROS in the sciatic nerve after 10 week treatment [6]: significantly higher; mechanical pain threshold after 10 week treatment [6]: no difference
6 | CCc1ccc(CCCCc2ccc3c(c2)NC(=O)CC3)cc1 [ELB00702, 7-(4-(4-ethylphenyl)butyl)-3,4-dihydroquinolin-2(1H)-one] | < 6.4 µM and 3.1 µM | more than twice | > 5 | 
7 | CCc1ccc(C/C=C/c2cccc(CC3NCC(=O)N3)c2)cc1 (centres unmarked) [ELB001090, (E)-2-(3-(3-(4-ethylphenyl)prop-1-en-1-yl)benzyl)imidazolidin-4-one] | < 6.4 µM and 3.9 µM | more than twice |  | EC50 [3]: < 9.7 µM
